# Source: patent publication US10793557B2, “Sting agonist compounds” (Merck Sharp & Dohme Corp., priority 2018, dated 2020)
# Columns and labels:
# [1] = system: secretion of interferon-beta from THP1 cells; assay: IFN-β secretion in THP1 cell culture (5 h); format: cell-based; details: Homo sapiens, THP-1, 5 h, compound at 30 μM, 30 uM cGAMP = 100%, read-out: % Effect at 30 μM relative to 2′3′-cGAMP
# Outline: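 IFN-β in supernatant measured by AlphaLISA after a 5 h, 37 °C incubation of THP1 cells with compound (10 concentrations, 30000 down to 1.5 nM, 0.3% DMSO) in low-serum RPMI. Values scaled between DMSO and 30 uM cGAMP controls; 4-parameter curve fit yields EC50.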
# full-length HAQ STING = target: T1, full-length HAQ STING (Homo sapiens, UniProt Q86WV6, G230A/H232R/R293Q/R71H); assay: 3H-cGAMP filtration binding assay (HAQ STING); details: competition with tritiated cGAMP, HAQ STING membrane
# T1 construct: AviTag (after GG linker) (C); HRV3C cleavage site (after GS linker) (C); HIS8 (C); made in house; host or cells: Trichoplusia ni (Hi-Five) insect cells infected with baculovirus (virus generated and amplified in Sf21 cells); used as a washed membrane preparation
# Outline: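 Hi-Five (T. ni) membranes overexpressing the STING variant (2.2 ug/ml working) preincubated with compound 60 min at RT in PBS, then [3H]cGAMP (8 nM working stock) added for 60 min at RT. Bound radioactivity captured on GF/B filters and counted by scintillation; EC50 from 4-parameter fit of control-normalized activity.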
# full-length WT STING = target: T2, full-length WT STING (Homo sapiens, UniProt Q86WV6, H232R); assay: 3H-cGAMP filtration binding assay (WT STING); details: for EC50: competition with tritiated cGAMP, WT STING membrane
# T2 construct: AviTag (after gg linker) (C); HRV3C cleavage site (after gs linker) (C); HIS8 (C); made in house; host or cells: Trichoplusia ni (Hi-Five) insect cells infected with baculovirus (virus generated and amplified in Sf21 cells); used as a washed membrane preparation
# Outline: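 EC50 values come from 4-parameter fits of remaining filter-bound tritium versus log concentration (10-point, 1:3 dilution). Insect-cell membranes carrying full-length WT STING were incubated 60 min at RT with compound and tritiated cGAMP (16 nM working stock) before filtration.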
# T2 sequence (Q86WV6 with tags, fused parts or gaps H232R): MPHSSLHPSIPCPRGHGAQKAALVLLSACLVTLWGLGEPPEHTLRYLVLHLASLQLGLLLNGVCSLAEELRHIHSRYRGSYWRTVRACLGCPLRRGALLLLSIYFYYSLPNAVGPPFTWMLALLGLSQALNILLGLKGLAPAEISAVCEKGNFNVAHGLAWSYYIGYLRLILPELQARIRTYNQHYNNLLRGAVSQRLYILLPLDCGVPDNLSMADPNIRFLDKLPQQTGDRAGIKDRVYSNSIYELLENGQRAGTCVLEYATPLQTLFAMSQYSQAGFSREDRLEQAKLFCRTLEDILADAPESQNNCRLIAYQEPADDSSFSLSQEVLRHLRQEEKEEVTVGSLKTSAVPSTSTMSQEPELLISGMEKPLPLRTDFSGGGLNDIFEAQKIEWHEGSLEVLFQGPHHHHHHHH
# T1 sequence (Q86WV6 with tags, fused parts or gaps R71H/G230A/H232R/R293Q): as the sequence (Q86WV6 with tags, fused parts or gaps H232R) above, with R71H, G230A, R293Q counted along it
Compound,EC50 (full-length HAQ STING),EC50 (full-length WT STING),"inhibition at 20 µM (full-length WT STING; at 20,000 nM compound)",activation at 30 µM [1]
"COc1cc2sc(C(=O)CCC#N)cc2cc1CCCc1cc2cc(C(=O)CCC(=O)O)sc2cc1OC [Example 24, 4-(5-(3-(2-(3-cyanopropanoyl)-6-methoxybenzo[b]thiophen-5-yl)propyl)-6-methoxybenzo[b]thiophen-2-yl)-4-oxobutanoic acid]",17800 nM,,39%,150%
"COc1cc(CCCc2cc3sc(C(=O)CCC(=O)O)cc3cc2OC)c2cc(C(=O)CCC(=O)O)sc2c1 [Example 26, 4-(4-(3-(2-(3-carboxypropanoyl)-5-methoxbenzo[b]thiophen-6-yl)propyl)-6-methoxybenzo[b]thiophen-2-yl)-4-oxobutanoic acid]",9 nM,19 nM,,129%
"COc1cc2sc(C(=O)CCC(=O)O)nc2cc1CCCc1cc2nc(C(=O)CCC(=O)O)sc2cc1OC [Example 27, 4,4′-(propane-1,3-diylbis(6-methoxybenzo[d]thiazole-5,2-diyl))bis(4-oxobutanoic acid)]",89 nM,362 nM,,113%
"Cc1cc2sc(C(=O)CCC(=O)O)cc2cc1CCCc1cc2cc(C(=O)CCC(=O)O)sc2cc1C [Example 28, 4,4′-(propane-1,3-diylbis(6-methylbenzo[b]thiophene-5,2-diyl))bis(4-oxobutanoic acid)]",46 nM,112 nM,,116%
"COc1cc2sc(C(=O)CCC(N)=O)cc2cc1CCCc1cc2cc(C(=O)CCC(=O)O)sc2cc1OC [Example 30, 4-(5-(3-(2-(4-amino-4-oxobutanoyl)-6-methoxybenzo[b]thiophen-5-yl)propyl)-6-methoxybenzo [b]thiophen-2-yl)-4-oxobutanoic acid]",1000 nM,7520 nM,,103%
"COc1cc2sc(CC[C@H](C)C(=O)O)cc2cc1CCCc1cc2cc(C(=O)CCC(=O)O)sc2cc1OC [Example 31, (S)-4-(5-(3-(2-(3-carboxybutyl)-6-methoxybenzo[b]thiophen-5-yl)propyl)-6-methoxybenzo[b]thiophen-2-yl)-4-oxobutanoic acid]",3320 nM,9480 nM,,117%
"COc1cc2sc(C(=O)CCC(=O)O)cc2cc1OCCOc1cc2cc(C(=O)CCC(=O)O)sc2cc1OC [Example 38, 4,4′-((ethane-1,2-diylbis (oxy))bis(6-methoxybenzo [b]thiophene-5,2-diyl))bis(4-oxobutanoic acid)]",695 nM,1040 nM,,17%

# Further lines, with some results ahead:
EC50 (full-length HAQ STING),EC50 (full-length WT STING),"inhibition at 20 µM (full-length WT STING; at 20,000 nM compound)",Compound,activation at 30 µM [1]
7 nM,24 nM,,"COc1cc2sc(C(=O)C[C@H](C)C(=O)O)cc2nc1OCCOc1c(OC)cc2sc(C(=O)CCC(=O)O)cc2c1F [Example 20, (S)-4-(5-(2-((2-(3-carboxypropanoyl)-4-fluoro-6-methoxybenzo[b]thiophen-5-yl)oxy)ethoxy)-6-methoxythieno[3,2-b]pyridin-2-yl)-2-methyl-4-oxobutanoic acid]",63%
1 nM,5 nM,,"COc1cc2sc(C(=O)C[C@H](C)C(=O)O)cc2nc1OCCCOc1c(OC)cc2sc(C(=O)CCC(=O)O)cc2c1F [Example 21, (S)-4-(5-(3-((2-(3-carboxypropanoyl)-4-fluoro-6-methoxybenzo[b]thiophen-5-yl)oxy)propoxy)-6-methoxythieno[3,2-b]pyridin-2-yl)-2-methyl-4-oxobutanoic acid]",59%
1 nM,2 nM,,"COc1cc2sc(C(=O)CCC(=O)O)cc2nc1OCCCOc1c(OC)cc2sc(C(=O)C[C@H](C)C(=O)O)cc2c1F [Example 23, (S)-4-(5-(3-((2-(3-carboxypropanoyl)-6-methoxythieno [3,2-b]pyridin-5-yl)oxy)propoxy)-4-fluoro-6-methoxybenzo[b]thiophen-2-yl)-2-methyl-4-oxobutanoic acid]",83%
6 nM,23 nM,,"COc1cc2sc(C(=O)CCC(=O)O)cc2cc1CCCc1cc2cc(C(=O)CCC(=O)O)sc2cc1OC [Example 25, 4,4′-(5,5′-(propane-1,3-diyl)bis(6-methoxybenzo[b]thiophene-5,2-diyl))bis(4-oxobutanoic acid)]",136%
8 nM,44 nM,,"COc1cc2sc(C(=O)CCC(=O)O)cc2cc1CCCc1nc2cc(C(=O)CCC(=O)O)sc2cc1OC [Example 29, 4-(5-(3-(2-(3-carboxypropanoyl)-6-methoxybenzo [b]thiophen-5-yl)propyl)-6-methoxythieno[3,2-b]pyridin-2-yl)-4-oxobutanoic acid]",107%
4 nM,9 nM,,"COc1cc2sc(C(=O)CCC(=O)O)cc2cc1CCCOc1c(OC)cc2sc(C(=O)CCC(=O)O)cc2c1F [Example 32, 4-(5-(3-((2-(3-carboxypropanoyl)-4-fluoro-6-methoxybenzo[b]thiophen-5-yl)oxy)propyl)-6-methoxybenzo [b]thiophen-2-yl)-4-oxobutanoic acid]",117%
1 nM,4 nM,,"COc1cc2sc(C(=O)CCC(=O)O)cc2cc1CCCOc1c(OC)cc2sc(C(=O)C[C@H](C)C(=O)O)cc2c1F [Example 33, (S)-4-(5-(3-(2-(3-carboxypropanoyl)-6-methoxybenzo [b]thiophen-5-yl)propoxy)-4-fluoro-6-methoxybenzo[b]thiophen-2-yl)-2-methyl-4-oxobutanoic acid]",104%
3 nM,4 nM,,"COc1cc2sc(C(=O)CCC(=O)O)cc2cc1OCCOc1c(OC)cc2sc(C(=O)C[C@H](C)C(=O)O)cc2c1F [Example 34, (S)-4-(5-(2-((2-(3-carboxypropanoyl)-6-methoxybenzo [b]thiophen-5-yl)oxy)ethoxy)-4-fluoro-6-methoxybenzo[b]thiophen-2-yl)-2-methyl-4-oxobutanoic acid]",72%
2 nM,4 nM,,"COc1cc2sc(C(=O)C[C@H](C)C(=O)O)cc2cc1CCCOc1c(OC)cc2sc(C(=O)CCC(=O)O)cc2c1F [Example 35, (S)-4-(5-(3-((2-(3-carboxypropanoyl)-4-fluoro-6-methoxybenzo[b]thiophen-5-yl)oxy)propyl)-6-methoxybenzo[b]thiophen-2-yl)-2-methyl-4-oxobutanoic acid]",80%
4 nM,10 nM,,"COc1cc2sc(C(=O)CCC(=O)O)cc2cc1OCCOc1c(OC)cc2sc(C(=O)CCC(=O)O)cc2c1F [Example 36, 4-(5-(2-((2-(3-carboxypropanoyl)-4-fluoro-6-methoxybenzo[b]thiophen-5-yl)oxy)ethoxy)-6-methoxybenzo[b]thiophen-2-yl)-4-oxobutanoic acid]",102%
1 nM,2 nM,,"COc1cc2sc(C(=O)C[C@H](C)C(=O)O)cc2cc1CCCOc1c(OC)cc2sc(C(=O)C[C@H](C)C(=O)O)cc2c1F [Example 37, (S)-4-(5-(3-((2-((S)-3-carboxybutanoyl)-4-fluoro-6-methoxybenzo[b]thiophen-5-yl)oxy)propyl)-6-methoxybenzo[b]thiophen-2-yl)-2-methyl-4-oxobutanoic acid]",76%
